ChEMBL document CHEMBL5465560, “Selectivity Literature for EUbOPEN Chemogenomic Library” (2024)

Columns and labels:
[1] = biological target: Dual specificity testis-specific protein kinase 1 (Homo sapiens) (UniProt Q15569); assay: Selectivity interaction (KinomeScan (DiscoverX)) EUB0000229b TESK1; settings: at 10 µM
[2] = biological target: Tyrosine-protein kinase BTK (Homo sapiens, UniProt Q06187); assay: Selectivity interaction (Kinome Scan (DiscoverX)) EUB0000229b BTK; settings: at 10 µM
[3] = biological target: Cyclin-dependent kinase 3 (Homo sapiens) (UniProt Q00526); assay: Selectivity interaction (KinomeScan (DiscoverX)) EUB0001079a CDK3; settings: at 1 µM
Chain of Cyclin-dependent kinase 3 (Homo sapiens) (Q00526 whole entry, looked up): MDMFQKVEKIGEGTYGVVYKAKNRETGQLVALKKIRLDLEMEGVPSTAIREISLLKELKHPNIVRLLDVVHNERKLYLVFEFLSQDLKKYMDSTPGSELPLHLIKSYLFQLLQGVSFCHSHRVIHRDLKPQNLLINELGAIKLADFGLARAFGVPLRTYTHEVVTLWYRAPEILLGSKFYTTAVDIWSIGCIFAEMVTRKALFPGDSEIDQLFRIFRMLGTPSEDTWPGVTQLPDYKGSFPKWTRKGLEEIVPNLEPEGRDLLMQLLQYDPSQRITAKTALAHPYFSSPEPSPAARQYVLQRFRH

[4] = biological target: T1, Dual specificity mitogen-activated protein kinase kinase 5 (Homo sapiens) (UniProt Q13163); assay: Selectivity interaction (KinomeScan (DiscoverX)) EUB0000666a MAP2K5; settings: at 10 µM
T1 sequence (whole entry): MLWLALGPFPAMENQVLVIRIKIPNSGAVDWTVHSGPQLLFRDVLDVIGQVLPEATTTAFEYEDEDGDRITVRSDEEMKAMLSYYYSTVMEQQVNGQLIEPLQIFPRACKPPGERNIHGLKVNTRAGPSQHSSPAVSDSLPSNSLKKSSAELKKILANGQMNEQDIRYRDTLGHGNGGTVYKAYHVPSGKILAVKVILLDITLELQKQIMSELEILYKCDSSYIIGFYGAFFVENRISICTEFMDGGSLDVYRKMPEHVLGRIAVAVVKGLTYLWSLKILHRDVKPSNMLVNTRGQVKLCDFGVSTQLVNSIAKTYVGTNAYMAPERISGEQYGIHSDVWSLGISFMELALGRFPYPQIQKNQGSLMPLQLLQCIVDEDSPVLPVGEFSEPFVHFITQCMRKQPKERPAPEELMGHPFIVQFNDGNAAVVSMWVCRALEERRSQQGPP

[5] = biological target: Histone acetyltransferase KAT2A (Homo sapiens) (UniProt Q92830); assay: Selectivity interaction (Bromodomain panel (DSF asssay)) EUB0000270b KAT2A
[6] = biological target: Ribosomal protein S6 kinase alpha-6 (Homo sapiens, UniProt Q9UK32); assay: Selectivity interaction (Kinase screening (Nanosyn)) EUB0000604a RPS6KA6
Chain of Ribosomal protein S6 kinase alpha-6 (Q9UK32 whole entry): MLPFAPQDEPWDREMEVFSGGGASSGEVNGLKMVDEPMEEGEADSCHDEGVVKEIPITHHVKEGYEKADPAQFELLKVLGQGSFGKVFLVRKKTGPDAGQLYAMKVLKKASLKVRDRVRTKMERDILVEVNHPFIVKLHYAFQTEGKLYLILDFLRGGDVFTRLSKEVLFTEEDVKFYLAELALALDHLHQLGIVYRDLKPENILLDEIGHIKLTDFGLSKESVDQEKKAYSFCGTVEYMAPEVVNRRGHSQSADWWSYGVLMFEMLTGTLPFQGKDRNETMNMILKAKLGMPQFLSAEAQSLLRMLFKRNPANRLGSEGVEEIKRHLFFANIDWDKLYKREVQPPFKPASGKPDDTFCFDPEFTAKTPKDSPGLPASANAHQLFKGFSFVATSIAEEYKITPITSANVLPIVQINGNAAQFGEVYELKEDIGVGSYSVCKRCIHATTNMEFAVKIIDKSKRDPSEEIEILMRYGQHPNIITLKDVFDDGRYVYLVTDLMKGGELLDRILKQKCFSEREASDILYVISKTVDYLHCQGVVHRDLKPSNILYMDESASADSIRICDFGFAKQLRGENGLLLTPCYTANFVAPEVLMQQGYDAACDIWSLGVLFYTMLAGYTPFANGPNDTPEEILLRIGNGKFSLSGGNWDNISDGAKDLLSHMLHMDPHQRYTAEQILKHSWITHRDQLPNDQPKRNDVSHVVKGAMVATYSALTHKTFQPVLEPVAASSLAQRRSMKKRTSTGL

[7] = biological target: Receptor tyrosine-protein kinase erbB-4 (Homo sapiens, UniProt Q15303); assay: Selectivity interaction (ProQinase) EUB0000171b ERBB4
Chain of Receptor tyrosine-protein kinase erbB-4 (Q15303 whole entry): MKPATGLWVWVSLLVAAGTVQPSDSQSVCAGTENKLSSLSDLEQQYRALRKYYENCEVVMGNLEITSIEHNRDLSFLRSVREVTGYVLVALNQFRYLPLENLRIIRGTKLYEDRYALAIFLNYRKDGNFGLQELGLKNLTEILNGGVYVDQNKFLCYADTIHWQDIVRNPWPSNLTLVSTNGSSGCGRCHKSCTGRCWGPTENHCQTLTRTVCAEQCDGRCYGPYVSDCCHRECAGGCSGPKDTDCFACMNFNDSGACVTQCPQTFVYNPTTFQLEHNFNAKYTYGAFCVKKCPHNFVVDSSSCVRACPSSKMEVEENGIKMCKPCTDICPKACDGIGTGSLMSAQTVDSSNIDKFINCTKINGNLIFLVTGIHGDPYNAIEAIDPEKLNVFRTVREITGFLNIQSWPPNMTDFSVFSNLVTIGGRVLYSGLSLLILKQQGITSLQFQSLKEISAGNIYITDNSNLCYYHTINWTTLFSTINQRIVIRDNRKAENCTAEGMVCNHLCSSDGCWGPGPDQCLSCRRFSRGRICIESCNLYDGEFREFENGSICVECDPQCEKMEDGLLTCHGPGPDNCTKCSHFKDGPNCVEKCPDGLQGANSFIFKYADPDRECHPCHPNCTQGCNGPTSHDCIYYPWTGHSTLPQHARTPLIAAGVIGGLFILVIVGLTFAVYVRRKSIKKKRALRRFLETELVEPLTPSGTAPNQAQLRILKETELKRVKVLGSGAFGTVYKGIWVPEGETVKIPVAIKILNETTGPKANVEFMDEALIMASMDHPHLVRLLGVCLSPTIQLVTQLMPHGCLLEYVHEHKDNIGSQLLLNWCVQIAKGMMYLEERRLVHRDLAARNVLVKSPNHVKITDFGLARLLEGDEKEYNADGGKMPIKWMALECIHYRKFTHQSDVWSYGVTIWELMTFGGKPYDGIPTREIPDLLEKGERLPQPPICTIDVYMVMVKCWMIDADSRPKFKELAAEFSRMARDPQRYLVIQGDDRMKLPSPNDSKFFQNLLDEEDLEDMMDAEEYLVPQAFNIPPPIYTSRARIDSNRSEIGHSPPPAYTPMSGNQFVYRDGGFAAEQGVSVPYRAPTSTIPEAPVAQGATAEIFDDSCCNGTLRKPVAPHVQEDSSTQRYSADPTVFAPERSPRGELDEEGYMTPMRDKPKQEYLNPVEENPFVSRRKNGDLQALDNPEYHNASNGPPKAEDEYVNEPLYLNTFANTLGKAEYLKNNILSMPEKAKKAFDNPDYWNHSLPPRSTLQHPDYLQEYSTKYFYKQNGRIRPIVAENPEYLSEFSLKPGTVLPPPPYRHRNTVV

[8] = biological target: Activin receptor type-2A (Homo sapiens) (UniProt P27037); assay: Selectivity interaction (ProQinase) EUB0000171b ACVR2A
Chain of Activin receptor type-2A (Homo sapiens) (P27037 whole entry): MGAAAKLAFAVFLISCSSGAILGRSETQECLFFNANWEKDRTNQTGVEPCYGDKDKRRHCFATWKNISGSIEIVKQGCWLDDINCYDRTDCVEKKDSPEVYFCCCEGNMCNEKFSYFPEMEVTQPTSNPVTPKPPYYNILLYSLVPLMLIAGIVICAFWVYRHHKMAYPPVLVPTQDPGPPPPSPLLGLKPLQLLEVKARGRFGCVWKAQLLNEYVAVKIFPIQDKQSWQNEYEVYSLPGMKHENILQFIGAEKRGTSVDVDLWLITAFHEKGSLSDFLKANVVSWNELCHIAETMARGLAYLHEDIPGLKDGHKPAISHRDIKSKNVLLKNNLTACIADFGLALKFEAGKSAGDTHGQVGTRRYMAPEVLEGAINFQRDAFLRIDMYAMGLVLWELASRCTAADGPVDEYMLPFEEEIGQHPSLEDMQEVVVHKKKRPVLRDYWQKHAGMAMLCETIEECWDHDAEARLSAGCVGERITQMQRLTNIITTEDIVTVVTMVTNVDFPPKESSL

[9] = biological target: T2, Serine/threonine-protein kinase Nek5 (Homo sapiens) (UniProt Q6P3R8); assay: Selectivity interaction (KinomeScan (DiscoverX)) EUB0001619a NEK5; settings: at 1 µM
T2 sequence (whole entry): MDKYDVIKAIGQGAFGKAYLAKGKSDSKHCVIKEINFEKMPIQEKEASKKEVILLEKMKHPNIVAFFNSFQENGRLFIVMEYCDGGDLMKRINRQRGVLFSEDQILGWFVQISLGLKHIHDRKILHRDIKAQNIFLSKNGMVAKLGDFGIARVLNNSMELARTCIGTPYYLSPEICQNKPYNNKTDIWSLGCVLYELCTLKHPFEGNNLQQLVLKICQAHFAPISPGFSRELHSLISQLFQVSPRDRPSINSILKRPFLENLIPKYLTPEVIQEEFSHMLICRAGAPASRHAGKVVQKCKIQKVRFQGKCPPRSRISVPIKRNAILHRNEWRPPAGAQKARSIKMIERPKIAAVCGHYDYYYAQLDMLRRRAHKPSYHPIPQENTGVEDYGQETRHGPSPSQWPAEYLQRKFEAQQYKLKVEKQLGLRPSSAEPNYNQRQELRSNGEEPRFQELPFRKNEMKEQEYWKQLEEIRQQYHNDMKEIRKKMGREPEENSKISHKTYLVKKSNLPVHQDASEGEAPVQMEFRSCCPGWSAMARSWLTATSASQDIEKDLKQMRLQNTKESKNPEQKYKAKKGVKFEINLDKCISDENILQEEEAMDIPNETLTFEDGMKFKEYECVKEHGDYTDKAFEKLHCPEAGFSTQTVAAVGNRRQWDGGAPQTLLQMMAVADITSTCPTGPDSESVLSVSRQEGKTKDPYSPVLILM

[10] = biological target: Protein kinase C delta type (Homo sapiens) (UniProt Q05655); assay: Selectivity interaction (KinomeScan (DiscoverX)) EUB0000607a PRKCD; settings: at 10 µM
Chain of Protein kinase C delta type (Homo sapiens) (Q05655 whole entry, looked up): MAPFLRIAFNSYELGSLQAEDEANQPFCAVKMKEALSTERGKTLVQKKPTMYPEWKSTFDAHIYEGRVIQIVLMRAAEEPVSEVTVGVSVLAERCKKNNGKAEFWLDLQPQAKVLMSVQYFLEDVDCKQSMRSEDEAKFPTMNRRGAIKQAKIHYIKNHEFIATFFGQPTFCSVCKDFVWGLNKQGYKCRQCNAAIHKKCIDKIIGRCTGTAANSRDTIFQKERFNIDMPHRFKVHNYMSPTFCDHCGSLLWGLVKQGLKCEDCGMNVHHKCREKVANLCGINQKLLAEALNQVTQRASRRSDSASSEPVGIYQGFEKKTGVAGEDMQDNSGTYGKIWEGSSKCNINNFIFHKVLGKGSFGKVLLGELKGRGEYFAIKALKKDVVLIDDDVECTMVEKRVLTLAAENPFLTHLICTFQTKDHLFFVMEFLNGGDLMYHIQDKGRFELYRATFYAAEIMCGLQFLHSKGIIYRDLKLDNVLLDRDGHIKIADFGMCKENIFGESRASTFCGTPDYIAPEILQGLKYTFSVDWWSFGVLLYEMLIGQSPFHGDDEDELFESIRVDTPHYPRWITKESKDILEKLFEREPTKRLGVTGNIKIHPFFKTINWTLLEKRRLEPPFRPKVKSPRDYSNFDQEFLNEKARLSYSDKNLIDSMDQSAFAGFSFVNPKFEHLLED

[11] = biological target: Aurora kinase B (Homo sapiens, UniProt Q96GD4); assay: Selectivity interaction (Kinase panel (DSF assay)) EUB0001558a AURKB
Chain of Aurora kinase B (Q96GD4 whole entry): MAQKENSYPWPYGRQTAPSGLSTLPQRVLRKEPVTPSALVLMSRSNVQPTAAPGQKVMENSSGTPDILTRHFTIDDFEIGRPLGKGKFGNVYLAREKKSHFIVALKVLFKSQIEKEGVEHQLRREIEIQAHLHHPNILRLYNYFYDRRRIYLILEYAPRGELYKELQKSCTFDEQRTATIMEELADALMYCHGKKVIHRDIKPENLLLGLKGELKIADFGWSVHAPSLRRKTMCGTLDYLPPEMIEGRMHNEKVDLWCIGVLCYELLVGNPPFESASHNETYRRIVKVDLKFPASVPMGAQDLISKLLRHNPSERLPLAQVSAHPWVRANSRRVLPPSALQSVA

[12] = biological target: Myosin light chain kinase, smooth muscle (Homo sapiens, UniProt Q15746); assay: Selectivity interaction (Kinase panel (Invitrogen)) EUB0000639a MYLK; settings: at 200 nM
[13] = biological target: RAF proto-oncogene serine/threonine-protein kinase (Homo sapiens) (UniProt P04049); assay: Selectivity interaction (KinomeScan (DiscoverX)) EUB0000092b RAF1; settings: at 10 µM
Chain of RAF proto-oncogene serine/threonine-protein kinase (Homo sapiens) (P04049 whole entry): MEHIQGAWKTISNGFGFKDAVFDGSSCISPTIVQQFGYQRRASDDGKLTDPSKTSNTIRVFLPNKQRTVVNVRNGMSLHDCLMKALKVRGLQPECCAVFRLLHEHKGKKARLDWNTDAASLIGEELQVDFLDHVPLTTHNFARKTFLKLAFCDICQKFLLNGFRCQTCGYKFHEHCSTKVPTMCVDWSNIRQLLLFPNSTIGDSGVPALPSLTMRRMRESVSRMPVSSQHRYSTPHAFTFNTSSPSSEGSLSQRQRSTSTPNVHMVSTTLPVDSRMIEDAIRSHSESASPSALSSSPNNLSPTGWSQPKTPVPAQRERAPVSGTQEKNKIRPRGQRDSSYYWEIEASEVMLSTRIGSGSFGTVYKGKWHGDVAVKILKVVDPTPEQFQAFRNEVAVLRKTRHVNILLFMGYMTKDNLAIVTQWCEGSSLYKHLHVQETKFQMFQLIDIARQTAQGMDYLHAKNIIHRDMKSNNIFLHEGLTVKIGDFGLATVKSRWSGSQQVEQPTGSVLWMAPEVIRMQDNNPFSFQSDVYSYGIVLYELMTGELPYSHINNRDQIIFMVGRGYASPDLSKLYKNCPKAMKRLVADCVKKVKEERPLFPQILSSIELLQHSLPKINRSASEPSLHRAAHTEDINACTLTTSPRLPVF

[14] = biological target: T3, NUAK family SNF1-like kinase 1 (Homo sapiens) (UniProt O60285); assay: Selectivity interaction (Ambit KINOMEscan and KiNATiv profiling in Jurkat cells) EUB0000090b NUAK1; assay type: cell-based; settings: at 1 µM
T3 sequence (whole entry): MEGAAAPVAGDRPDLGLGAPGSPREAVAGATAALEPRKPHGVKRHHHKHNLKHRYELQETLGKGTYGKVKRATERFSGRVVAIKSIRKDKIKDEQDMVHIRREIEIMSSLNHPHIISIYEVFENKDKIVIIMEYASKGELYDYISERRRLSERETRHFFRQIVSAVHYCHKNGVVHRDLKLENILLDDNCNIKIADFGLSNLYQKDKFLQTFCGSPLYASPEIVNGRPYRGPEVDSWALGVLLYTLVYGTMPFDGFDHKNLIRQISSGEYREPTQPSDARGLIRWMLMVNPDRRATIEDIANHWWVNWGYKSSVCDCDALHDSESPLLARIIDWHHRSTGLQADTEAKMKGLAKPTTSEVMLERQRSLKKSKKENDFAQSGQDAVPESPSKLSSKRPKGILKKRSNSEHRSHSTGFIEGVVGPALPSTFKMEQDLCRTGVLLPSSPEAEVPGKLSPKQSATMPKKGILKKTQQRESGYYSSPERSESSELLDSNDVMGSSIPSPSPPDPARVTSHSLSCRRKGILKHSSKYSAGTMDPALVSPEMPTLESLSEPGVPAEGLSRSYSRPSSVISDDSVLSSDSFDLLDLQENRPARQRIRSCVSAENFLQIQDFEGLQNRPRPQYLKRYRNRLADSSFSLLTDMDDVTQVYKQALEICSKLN

COc1cc(N(C)c2ccnc3ccc(C(F)(F)F)cc23)cc(OC)c1OC
% binding [1]: 90% | % binding [2]: 100%

Nc1cnc(N2CCc3cc(S(=O)(=O)Nc4c(F)cc(Cl)cc4F)cc(N4CCCC4=O)c32)nc1 [TP-020n]
% of control [3]: 100%

O=C(NOC[C@H](O)CO)c1ccc(F)c(F)c1Nc1ccc(I)cc1F
% of control [4]: 86%

Cc1cc(CN)cc(C)c1-c1ncn(C)c1-c1cncn1C
dTM [5]: -2.29 K

Cc1cnc(Nc2ccc(F)cc2Cl)nc1-c1c[nH]c(C(=O)N[C@H](CO)c2cccc(Cl)c2)c1
% of inhibition [6]: 11%

C=CC(=O)Nc1cccc(C(=O)Nc2ccc(Nc3cc(-c4[nH]c(SC)nc4C)ccn3)cc2)c1
% of control ([7]; at 1 µM): 93% | % of control ([7]; at 5 µM): 90% | % of control ([8]; at 1 µM): 81% | % of control ([8]; at 5 µM): 80%

N#Cc1cccc(-c2c[nH]c3ncnc(N4CCOCC4)c23)c1
% of control [9]: 100%

CNC(=O)Nc1ccc(-c2nc(N3CC4CCC(C3)O4)c3cnn(C4CCC5(CC4)OCCO5)c3n2)cc1
% of control [10]: 100%

CC(C)(O)[C@H](F)CN1Cc2cc(NC(=O)c3cnn4cccnc34)c(N3CCOCC3)cc2C1=O
dTM [11]: 0.5 K

CC[C@@H]1[C@H](F)C(=O)N[C@@H]1COc1nccc2cc(C(N)=O)c(OC)cc12 [ZIMLOVISERTIB]
% of inhibition [12]: 8.89%

CCC(=O)N1CCN(c2ccc(-n3c(=O)ccc4cnc5ccc(-c6cnc7ccccc7c6)cc5c43)cc2C(F)(F)F)CC1
% of control [13]: 48%

CN(C)C/C=C/C(=O)Nc1ccc(C(=O)N2CCCC(Nc3ncc(Cl)c(-c4c[nH]c5ccccc45)n3)C2)cc1 (stereo unspecified)
% of control [14]: 84%
